Data on two compounds can be found in patent US10653657B2, “Method for treating hemolytic uremic syndrome” (ENZYCHEM LIFESCIENCES CORPORATION, priority 2015, dated 2020).

Data set [1] concerns C3. Put plainly: C3 in culture supernatant of HepG2 cells by ELISA. The format is cell-based, human. As to conditions: PLAG 1 to 100 μg/ml; IL-4 and TNF-α 1 hr, then 18 hr at 37° C. Here is the method:
(§1) The incubated HepG2 cell lines are treated with PLAG (1˜100 μg/ml), followed by IL-4 and TNF-α, reacted for 1 hour, incubated for 18 hours at 37° C. and the supernatant is isolated. Quantitation of the amount of C3 in the cellular culture medium (supernatant) from HepG2 cells is performed by ELISA using a commercially available monoclonal antibody (mAb, R&D Systems) and the manufacture's protocol; the results are presented in FIGS. 3A-3C. C3 is expressed spontaneously under in vitro culture conditions using 10% FCS added to HepG2 cells incubated for 12 hr. The cells are treated with different doses of PLAG from 1 to 100 μg/ml (FIG. 3A, FIG. 3B) or 10 and 100 μg/ml of S6I (FIG. 3C), reacted with IL-4 and TNF-α for 1 hr and then incubated for 18 hr at 37° C. Cellular viability is confirmed using the WST-1 assay (FIG. 3A).
(ELISA stands for enzyme-linked immunosorbent assay.)

In data set [2] the test system is hematopoietic stem cells and megakaryocytes. As to conditions: reported in WO 99/26640; cited from earlier work.
Data set [3] can be described thus: Colony forming units (CFUs) in spleen assay in heavily irradiated mice. The format is in vivo. To be noted: PLAG 50 mg/kg/d i.p. or p.o. Here is the method:
Colony Forming Units (CFUs) in Spleen Assay in Vivo: In order to determine the in vivo effect of PLAG on the recovery of hematopoiesis, a CFUs assay is performed in heavily irradiated mice.

Data set [4] relates to C3. Put plainly: C3 expression in HMC-1 cells induced with IL-4 and TNF-α (RT-PCR / blots). The format is cell-based, human. The method, then:
A blood cell line, HMC-1 (human mast cell, American Type Culture Collection, ATCC, Rockville, Md.) is incubated and maintained at 37° C. under 5% CO2 humid conditions. The medium is IMDM (Life Technologies, Karlsruhe, Germany) containing 10% Fetal Calf Serum (FCS, HyClone, Logan, Utah), 2 mM […], 100 μg/ml penicillin, 100 μg/ml streptomycin (Life Technologies). The cultured HMC-1 cells (1×10^6 cells/ml) are pre-treated with 0.1 and 1 μg/mL concentrations of PLAG, followed by treatment with IL-4 (5 ng) and/or TNF-α (10 ng) to induce cellular activities.
The expressed C3 and its mRNA level change are observed by using RT-PCR (Reverse Transcriptase Polymerase Chain Reaction). The RT-PCR is carried out as follows: the total RNA is separated by the standard protocol and cDNA is synthesized using AccuScript High Fidelity 1st Strand cDNA Synthesis Kit (Stratagene). Two-step RT-PCR reaction is conducted using Oligo-dT primer and reverse transcriptase, a pair of primers and Taq polymerase (Takara, Shiga, Japan). […] The product of PCR is separated using 1.5% agarose gel, dyed with ethidium bromide (EtBr), and visualized with Gel Doc 2000 UV trans-illuminator (Bio-Rad Laboratories, Hercules, Calif., USA), and the experimental data is analyzed using Quantity One software (Bio-Rad Laboratories).

Data set [5] has as its target T1, STAT6 (Homo sapiens, UniProt P42226).
T1 construct: endogenous in cells; host or cells: U937, A549, Jurkat
T1 sequence (P42226 1-847): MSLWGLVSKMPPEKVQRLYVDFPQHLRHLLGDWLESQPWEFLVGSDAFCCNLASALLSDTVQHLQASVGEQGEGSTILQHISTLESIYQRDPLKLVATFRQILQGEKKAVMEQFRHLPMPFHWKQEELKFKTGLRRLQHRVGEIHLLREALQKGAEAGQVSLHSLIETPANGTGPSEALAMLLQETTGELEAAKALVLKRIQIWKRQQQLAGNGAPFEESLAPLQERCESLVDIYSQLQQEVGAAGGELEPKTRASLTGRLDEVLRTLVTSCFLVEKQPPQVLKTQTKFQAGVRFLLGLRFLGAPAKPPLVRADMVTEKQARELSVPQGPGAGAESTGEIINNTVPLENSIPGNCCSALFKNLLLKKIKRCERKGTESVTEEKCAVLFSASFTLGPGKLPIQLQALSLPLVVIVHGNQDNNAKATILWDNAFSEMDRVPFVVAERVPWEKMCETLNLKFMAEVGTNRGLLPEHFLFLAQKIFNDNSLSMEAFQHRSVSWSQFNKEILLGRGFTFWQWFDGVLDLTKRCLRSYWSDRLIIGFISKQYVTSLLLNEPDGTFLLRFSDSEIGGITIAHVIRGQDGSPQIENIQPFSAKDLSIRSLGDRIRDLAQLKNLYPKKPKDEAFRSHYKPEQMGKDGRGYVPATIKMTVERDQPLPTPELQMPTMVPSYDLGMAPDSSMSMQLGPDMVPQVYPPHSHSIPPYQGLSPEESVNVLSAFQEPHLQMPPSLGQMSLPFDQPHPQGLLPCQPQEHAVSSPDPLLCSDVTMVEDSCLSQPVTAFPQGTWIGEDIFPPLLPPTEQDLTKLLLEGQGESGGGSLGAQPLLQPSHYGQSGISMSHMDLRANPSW
Nature of the data set: Dephosphorylation of STAT6 (Western blot, anti-phosphorylated STAT6) in IL-4 stimulated cells. To be noted: U937, Jurkat and A549 cells; PLAG 0.01 to 10 μg/ml; 10 ng/ml IL-4; 15 min after stimulation. The data set is classed as cell-based. Here is the method:
Dephosphorylation of STAT6 is examined using anti-phosphorylated STAT6 in U937, A549, and Jurkat cell lysates treated with PLAG at a concentration of from 0.01 to 10 μg/ml. Phosphorylation of STAT6 is induced by treatment with 10 ng/ml of IL-4. Dephosphorylation of STAT1 is examined in the U937 cell lysate treated with PLAG (0.01 to 10 μg/ml). Phosphorylation of STAT1 is induced by 10 ng of IFN-γ treatment. Dephosphorylation of STAT1 and STAT6 is examined at 15 min after stimulation with IFN-γ and IL-4 respectively, in the PLAG pretreated cells. […] The transcriptional activity of STAT6 is decreased by the dephosphorylation of STAT6. […] No effect of PLAG on STAT1 phosphorylation is observed.
Background: Immunoblotting shows a protein as a band on a membrane.

In the next data set the test system is complement 3. Put plainly: Complement 3 activation by chemotherapeutic agents in mouse model. The data set is classed as in vivo. As to conditions: mice; PLAG 50 mg/kg daily 3 weeks with Gemcitabine, Cyclosphosphamide or Tamoxifen. The method, then:
The effect of PLAG for treatment of chemotherapy-induced thrombocytopenia (CIT) is evaluated in an animal model. Anti-cancer agents (Gemcitabine 50 mg/kg, Cyclosphosphamide 100 mg/kg, or Tamoxifen 50 mg/kg) are dosed daily for 3 weeks; PLAG is also administered at a dose of 50 mg/kg daily for 3 weeks.
It is believed that the neutropenia and thrombocytopenia of these agents and other chemotherapeutic agents may be due at least in part to a specific complement-mediated toxicity. This is seen in FIG. 5.

A further data set has as its system STAT1. Nature of the data set: STAT1 transcriptional activity (luciferase) in gene transfected HepG2 cells. The format is cell-based, human. To be noted: 10 ng IFN-γ, PLAG 0.01-10 μg/ml, 12 hour incubation. Here is the method: (§2) By using STAT6 inhibitor (S6I), it is confirmed that the reduction of complement 3 in HepG2 cells (human hepatocyte cell line) is regulated by STAT6. […] It is also confirmed that PLAG has selective efficacy on STAT6 over STAT1. FIG. 1 presents graphs showing STAT1 and STAT6 transcriptional activity in the PLAG treated HepG2 cells. NC refers to the unstimulated control cell. For the STAT1 assay, gene transfected HepG2 (human hepatocyte cell line) is treated with 10 ng of IFN-γ and serially diluted PLAG is added (0.01 μg/ml, 0.1 μg/ml, 1 μg/ml, and 10 μg/ml as shown) to see its effect on gene expression in the stimulated cell. For the STAT6 assay, gene transfected HepG2 cells are treated with 10 ng of IL-4 and again serially diluted PLAG is added (0.01 μg/ml, 0.1 μg/ml, 1 μg/ml, and 10 μg/ml as shown) to see its effect on gene expression in the stimulated cell. The assay is carried out following a 12 hour incubation of treated cells.

Data set [6] deals with C3. Put plainly: C3 inhibition in HMC-1 cells, ELISA of expressed protein. The format is cell-based, human. As to conditions: PLAG 1, 10 and 100 μg/mL for 2 hours; activated 72 hours with 10% FBS. Here is the method: In a separate experiment, human mast cells (HMC-1, 1×10^5 cells/ml) are treated with PLAG at various concentrations (1, 10 and 100 μg/mL) for 2 hours. The cells are activated for 72 hours with 10% FBS (Fetal bovine serum)-containing IMDM. The decrease of C3 is confirmed by ELISA analysis of the expressed protein.

Data set [7] deals with STAT6. Nature of the data set: STAT6 transcriptional activity (luciferase) in gene transfected HepG2 cells. The data set is classed as cell-based, human. To be noted: 10 ng IL-4, PLAG 0.01-10 μg/ml, 12 hour incubation. Here is the method:
as §2

Data set [8] has as its system C3. Put plainly: C3 mRNA expression in HepG2 cells by RT-PCR. The data set is classed as cell-based, human. Here is the method: A liver cell line, HepG2 (American Type Culture Collection, ATCC, Rockville, Md.), is incubated and maintained at 37° C., 5% CO2 humid atmosphere in DMEM medium. When HepG2 cells, which are known to produce complement in culture, are treated with PLAG, the activity of complement is reduced effectively, as confirmed by RT-PCR of mRNA. In the RT-PCR, 5×10^5 HepG2 cells/ml are distributed into 12 well plates and induced C3 for 12 hours with 10% FCS. Then PLAG is added and further cultured for 2 hours. Cells are harvested and mRNA is isolated and RT-PCR is carried out with specific primers for C3; GAPDH is used as an internal control.

Another data set deals with HepG2 cells. Put plainly: WST-1 cell viability assay in HepG2 cells. The data set is classed as cell-based. To be noted: PLAG 1 to 100 μg/ml. The method, then: as §1
For orientation: Tetrazolium assays rely on reduction of a dye to a coloured formazan, in cell work by metabolically active cells.

Take `CCCCC/C=C\C/C=C\CCCCCCCC(=O)OC(COC(C)=O)COC(=O)CCCCCCCCCCCCCCC` (racemic) [PLAG, 1-palmitoyl-2-linoleoyl-3-acetylglycerol]: the “Expression of C3 (ELISA, HepG2 supernatant)” value in the data set on C3 [1] was “decreased dose-dependently”. Further, in [2], the “Growth-stimulating activities of hematopoietic stem cells and megakaryocytes” value is “have growth-stimulating activities”. For the same compound, the “Number of splenic nodules, primitive progenitor cells and megakaryocytes” value in data set [3] is given as “marked increase”. Moreover, the “Expression of C3 in HMC-1 cells” value with C3 [4] (pre-treated with 0.1 and 1 μg/mL PLAG, then IL-4 (5 ng) and TNF-α (10 ng)) was “suppressed by PLAG on a concentration dependent basis”. Moreover, the “IL-4 treatment induced STAT6 phosphorylation” value on STAT6 [5] is “inhibited with increasing PLAG concentrations”. For the same compound, in the data set with complement 3, the “Complement 3 activation caused by chemotherapeutic agents” value is recorded as “largely blocked”. In the data set on STAT1, the “STAT1 expression (transcriptional activity, luciferase)” value is given as “no effect”. In addition, the “Decrease of C3 (ELISA) in HMC-1 cells” value in the data set with C3 [6] is on record as “proportional to the concentration of PLAG”. The “STAT6 expression (transcriptional activity, luciferase)” value in the data set on STAT6 [7] is reported as “significant, dose-dependent effect”. Besides, the “Inhibition of C3 expression (RT-PCR) in HepG2” value was “somewhat” in the data set with C3 [8] (PLAG 1 μg/ml, 2 hours, C3 induced 12 hours with 10% FCS) and “entirely” with C3 [8] (PLAG 10 μg/ml, 2 hours, C3 induced 12 hours with 10% FCS). Further, in the data set with HepG2 cells, the “Cellular propagation and death (WST-1 viability)” value is on record as “does not affect”.

With `NC(=O)c1cnc(NCCc2ccc(O)c(Cl)c2)nc1NCc1ccccc1` [S6I, reference compound], in the data set on C3 [4] (IL-4 and TNF-α followed by S6I), the “Expression of C3 in HMC-1 cells” value was “comparable”. Also, the “Inhibition of C3 expression (RT-PCR) in HepG2” value in the data set on C3 [8] (S6I 10 and 100 μg/ml, compared with PLAG 1 and 10 μg/ml) is on record as “comparable”.
